According to patent publication US6602873B2, “Angiogenesis inhibiting thiadiazolyl pyridazine derivatives” (Janssen Pharamaceutica, N.V., priority 1997, dated 2003):
Counter-ions that a name gives are not always drawn.

These molecules were tested on microvessel formation in rat aortic rings (assay: rat aortic ring model of angiogenesis (inhibition of microvessel formation)). Conditions: 192 h, microvessel area after eight days in culture vs vehicle-treated control rings.
Assay type: cell-based
Description: Angiogenesis inhibitory activity was measured in vitro using the rat aortic ring model of angiogenesis as described by Nicosia, R. F. and Ottinetti in “Laboratory Investigation”, vol. 63, p. 115, 1990. The ability of compounds to inhibit microvessel formation was compared to vehicle-treated control rings. Quantitation (microvessel area) following eight days in culture was performed using an image analysis system, consisting of a light microscope, a CCD camera and an automated, custom-designed image analysis program as described by Nissanov, J., Tuman, R. W., Gruver, L. M., and Fortunato, J. M. in “Laboratory Investigation”, vol 73 (#5), p. 734, 1995. Compounds were tested at several concentrations for determination of inhibitory potency (IC50's).

Row | IC50 [nM] | Structure (SMILES)
1 | 3.62 | Cc1nsc(-c2ccc(N(C)CCCCOc3ccc(C(F)(F)F)cc3)nn2)n1 [Compound 55, N-methyl-6-(3-methyl-1,2,4-thiadiazol-5-yl)-N-[4-[4-(tri-fluoromethyl)phenoxy]butyl]-3-pyridazinamine monohydrochloride]
2 | 5.56 | Cc1nsc(-c2ccc(N(C)CCCCOc3cccc(C(F)(F)F)c3)nn2)n1 [Compound 52, N-methyl-6-(3-methyl-1,2,4-thiadiazol-5-yl)-N-[4-[3-(trifluoromethyl)phenoxy]butyl]-3-pyridazinamine]
3 | 4.71 | Cc1nsc(-c2ccc(SCCCCOc3cccc(C(F)(F)F)c3)nn2)n1 [Compound 94, 3-(3-methyl-1,2,4-thiadiazol-5-yl)-6-[[4-[3-(trifluoromethyl)phenoxy]butyl]thio]pyridazine]

Same assay, conditions: microvessel area after eight days in culture vs vehicle-treated control rings

Row | IC50 [nM] | Structure (SMILES)
4 | 80.7 | Cc1nsc(-c2ccc(N(C)CCCCOc3ccc(Br)cc3[N+](=O)[O-])nn2)n1 [Compound 56]
5 | 40.4 | Cc1nsc(-c2ccc(NCCCOc3cccc(C(F)(F)F)c3)nn2)n1 [Compound 25]
6 | 90.8 | FC(F)(F)c1cccc(OCCCCNc2ccc(-c3ncns3)nn2)c1 [Compound 11]
7 | 1.76 | Cc1nsc(-c2ccc(NCCCCCCOc3cccc(C(F)(F)F)c3)nn2)n1 [Compound 28]
8 | 24.8 | Cc1ccc(C(C)C)c(OCCCCNc2ccc(-c3nc(C)ns3)nn2)c1 [Compound 29]
9 | 1.46 | Cc1nsc(-c2ccc(N(C)CCCCOc3cccc(C(F)(F)F)c3F)nn2)n1 [Compound 46]
10 | 72.6 | Cc1nsc(-c2ccc(NCCCCOc3ccc(F)cc3F)nn2)n1 [Compound 22]
11 | 1.6 | CN(C)c1nsc(-c2ccc(NCCCCCCNc3cccc(C(F)(F)F)c3)nn2)n1 [Compound 97]
12 | 17.9 | Cc1nsc(-c2ccc(N(C)CCNc3ccccc3)nn2)n1 [Compound 9]
13 | 3.07 | FC(F)(F)c1cccc(OCCNc2ccc(-c3ncns3)nn2)c1 [Compound 98]
14 | 1.32 | Cc1nsc(-c2ccc(N(C)CCCCOc3ccccc3Cl)nn2)n1 [Compound 37]
15 | 13.7 | Cc1nsc(-c2ccc(N(C)CCCCOc3ccc([N+](=O)[O-])c(C(F)(F)F)c3)nn2)n1 [Compound 54]
16 | 37.2 | Cc1nsc(-c2ccc(N(C)CCCCOc3ccc(Cl)cc3)nn2)n1 [Compound 38]
17 | 20.3 | Cc1nsc(-c2ccc(N(C)CCCNc3cccc(C(F)(F)F)c3)nn2)n1 [Compound 104]
18 | 12.5 | Cc1nsc(-c2ccc(N(C)CCCCOc3cc(C(F)(F)F)ccc3F)nn2)n1 [Compound 47]
19 | 37.9 | Cc1nsc(-c2ccc(NCCCCNc3cccc(C(F)(F)F)c3)nn2)n1 [Compound 108]
20 | 1.34 | Cc1nsc(-c2ccc(NCCCCOc3ccccc3Cl)nn2)n1 [Compound 15]
21 | 1.85 | Cc1nsc(-c2ccc(N(C)CCCCOc3cc(F)cc(C(F)(F)F)c3)nn2)n1 [Compound 48]
22 | 1.33 | Cc1nsc(-c2ccc(NCCOc3cccc(C(F)(F)F)c3)nn2)n1 [Compound 24]

Row | IC50 [nM] | Structure (SMILES)
23 | 3.97 | Cc1nsc(-c2ccc(NCCCCOc3cccc(C(F)(F)F)c3)nn2)n1 [Compound 26]
24 | 7.01 | CN(C)c1nsc(-c2ccc(N(C)CCOc3cccc(C(F)(F)F)c3)nn2)n1 [Compound 100]
25 | 9.38 | Cc1nsc(-c2ccc(N(C)CCCOc3cccc(C(F)(F)F)c3)nn2)n1 [Compound 51]
26 | 21.2 | Cc1nsc(-c2ccc(NCCCCCNc3ccccc3)nn2)n1 [Compound 4]
27 | 7.33 | Cc1nsc(-c2ccc(N(C)CCCCOc3cc(C(F)(F)F)cc(C(F)(F)F)c3)nn2)n1 [Compound 53]
28 | 51.1 | Cc1nsc(-c2ccc(N(C)CCCCOc3cccc([N+](=O)[O-])c3)nn2)n1 [Compound 57]
29 | 17.1 | Cc1nsc(-c2ccc(N(C)CCCCOc3ccc(Cl)c(Cl)c3)nn2)n1 [Compound 39]
30 | 0.428 | Cc1nsc(-c2ccc(NCCNc3cccc(C(F)(F)F)c3)nn2)n1 [Compound 6]
31 | 2.08 | CN(CCCCOc1cccc(C(F)(F)F)c1)c1ccc(-c2nc(CO)ns2)nn1 [Compound 102]
32 | 1.49 | Cc1nsc(-c2ccc(NCCN(C)c3cccc(C(F)(F)F)c3)nn2)n1 [Compound 105]
33 | 8.53 | Cc1nsc(-c2ccc(NCCCCCCNc3cccc(C(F)(F)F)c3)nn2)n1 [Compound 8]
34 | 13.3 | Cc1nsc(-c2ccc(N(C)CCNc3cccc(C(F)(F)F)c3)nn2)n1 [Compound 112]
35 | 45.7 | Cc1nsc(-c2ccc(NCCCCNc3ccccc3)nn2)n1 [Compound 3]
36 | 16.4 | Cc1nsc(-c2ccc(NCCCCCCNc3ccccc3)nn2)n1 [Compound 5]
37 | 1.87 | Cc1nsc(-c2ccc(N(C)CCCCN(C)c3cccc(C(F)(F)F)c3)nn2)n1 [Compound 111]
38 | 2.56 | Cc1nsc(-c2ccc(N(C)CCCCOc3ccccc3F)nn2)n1 [Compound 41]
39 | 42.2 | Cc1nsc(-c2ccc(N(C)CCCCOc3cccc(F)c3)nn2)n1 [Compound 42]
40 | 2.78 | Cc1nsc(-c2ccc(N(C)CCCCOc3ccc(F)cc3)nn2)n1 [Compound 43]
41 | 15.8 | Cc1nsc(-c2ccc(NCCCCOc3ccc(Cl)cc3)nn2)n1 [Compound 16]

Row | IC50 [nM] | Structure (SMILES)
42 | 2 | Cc1nsc(-c2ccc(N(C)CCCCOc3ccc(F)c(F)c3)nn2)n1 [Compound 45]
43 | 0.312 | Cc1nsc(-c2ccc(N(C)CCCCOc3ccccc3C(F)(F)F)nn2)n1 [Compound 49]
44 | 35.1 | Cc1cccc(OCCCCN(C)c2ccc(-c3nc(C)ns3)nn2)c1 [Compound 61]
45 | 15.6 | Cc1nsc(-c2ccc(N(C)CCN(C)c3ccccc3)nn2)n1 [Compound 10]
46 | 45.4 | Cc1nsc(-c2ccc(NCCCNc3cccc(C(F)(F)F)c3)nn2)n1 [Compound 7]
47 | 5.3 | Cc1nsc(-c2ccc(N(C)CCCCOc3ccc(Br)cc3)nn2)n1 [Compound 36]
48 | 32.4 | CN(C)c1nsc(-c2ccc(NCCCCOc3cccc(C(F)(F)F)c3)nn2)n1 [Compound 67]
49 | 0.622 | Cc1nsc(-c2ccc(NCCCCCOc3cccc(C(F)(F)F)c3)nn2)n1 [Compound 27]
50 | 6.31 | COc1cccc(OCCCCNc2ccc(-c3nc(C)ns3)nn2)c1 [Compound 30]
51 | 12.8 | Cc1nsc(-c2ccc(NCCCCOc3ccc(Cl)c(Cl)c3)nn2)n1 [Compound 17]
52 | 6.98 | Cc1nsc(-c2ccc(N(C)CCN(Cc3ccccc3)c3cccc(C(F)(F)F)c3)nn2)n1 [Compound 110]
53 | 9.2 | CCN(CCCCOc1cccc(C(F)(F)F)c1)c1ccc(-c2nc(C)ns2)nn1 [Compound 63]
54 | 5.53 | Cc1ccc(C(C)C)c(OCCCCN(C)c2ccc(-c3nc(C)ns3)nn2)c1 [Compound 62]
55 | 31.2 | Cc1nsc(-c2ccc(NCCCCOc3ccc(Br)cc3)nn2)n1 [Compound 14]
56 | 0.83 | Cc1nsc(-c2ccc(N(C)CCOc3cccc(C(F)(F)F)c3)nn2)n1 [Compound 50]
57 | 29.4 | Cc1nsc(-c2ccc(N(C)CCCCOc3ccccc3)nn2)n1 [Compound 35]
58 | 15.2 | Cc1nsc(-c2ccc(N(C)CCCCOc3ccc(F)cc3F)nn2)n1 [Compound 44]
59 | 48.4 | Cc1nsc(-c2ccc(NCCCCOc3ccc(F)cc3)nn2)n1 [Compound 21]
60 | 11.5 | COc1ccc(OCCCCN(C)c2ccc(-c3nc(C)ns3)nn2)c(Cl)c1 [Compound 40]

Row | Structure (SMILES) | IC50 [nM]
61 | Cc1nsc(-c2ccc(N(C)CCCCSc3cccc(C(F)(F)F)c3)nn2)n1 [Compound 74] | 1
62 | Cc1nsc(-c2ccc(N(C)CCCCSc3ccc(F)cc3)nn2)n1 [Compound 72] | 0.388
63 | Cc1nsc(-c2ccc(N(C)CCCCC(=O)c3cccc(C(F)(F)F)c3)nn2)n1 [Compound 70] | 12.2
64 | Cc1nsc(-c2ccc(NCCCCSc3cccc(C(F)(F)F)c3)nn2)n1 [Compound 73] | 2.86
65 | Cc1nsc(-c2ccc(NCCCCOc3cccc(F)c3)nn2)n1 [Compound 20] | 8.15
66 | Cc1nsc(-c2ccc(NCCCCCc3cccc(C(F)(F)F)c3)nn2)n1 [Compound 77] | 5.81
67 | Cc1nsc(-c2ccc(N(C)CCCCCc3cccc(C(F)(F)F)c3)nn2)n1 [Compound 78] | 0.28
68 | Cc1nsc(-c2ccc(NCCCCSc3ccc(F)cc3)nn2)n1 [Compound 71] | < 0.1
69 | Cc1nsc(-c2ccc(N(C)CCCCCc3ccc(F)cc3)nn2)n1 [Compound 76] | 1.15
